Molecular target: unphosphorylated-BTK kinase domain (UP-BTK), GST-tagged human BTK (389-659aa) (Homo sapiens (Human), UniProt Q06187)
Test: BTK Kinase Lanthascreen Binding Assay
Conditions: Lanthascreen binding, 60 minutes incubation; pIC50 = negative log of the IC50 in molar
Protocol: BTK Kinase Lanthascreen Binding Assay:
A BTK kinase lanthascreen binding assay monitors compound binding to unphosphorylated-BTK kinase domain (UP-BTK), by competing with a fluorescent labeled tracer. […] Data were analyzed using Xlfit™ version 5.3 from ID Business Solutions (Guildford), Microsoft Excel add-in. pIC50 refers to the negative log of the IC50 in molar.

Chain of unphosphorylated-BTK kinase domain (UP-BTK), GST-tagged human BTK (389-659aa) (Q06187 389-659): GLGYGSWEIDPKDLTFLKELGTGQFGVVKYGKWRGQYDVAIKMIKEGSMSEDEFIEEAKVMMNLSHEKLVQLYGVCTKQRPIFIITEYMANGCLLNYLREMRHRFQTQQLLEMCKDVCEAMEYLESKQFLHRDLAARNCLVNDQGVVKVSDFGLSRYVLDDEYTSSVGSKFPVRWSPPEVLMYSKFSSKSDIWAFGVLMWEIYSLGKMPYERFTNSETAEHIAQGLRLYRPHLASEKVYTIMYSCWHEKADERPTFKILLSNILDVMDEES

BTK_I_binding pIC50 | SMILES
7.45 | C=CC(=O)N[C@H]1CCC[C@H]1NC(=O)c1sc2nccc3c2c1NC(=O)N3c1ccc(O[C@H]2CCOC2)cc1C [Example 383, N-((1R,2S)-2-Acrylamidocyclopentyl)-5-(2-methyl-4-(((S)-tetrahydrofuran-3-yl)oxy)phenyl)-4-oxo-4,5-dihydro-3H-1-thia-3,5,8-triazaacenaphthylene-2-carboxamide]
7.54 | C=CC(=O)N[C@H]1CCC[C@H]1NC(=O)c1sc2nccc3c2c1NC(=O)N3c1ccc(Oc2ccc(C)nc2)cc1C [Example 384, N-((1R,2S)-2-Acrylamidocyclopentyl)-5-(2-methyl-4-((6-methylpyridin-3-yl)oxy)phenyl)-4-oxo-4,5-dihydro-3H-1-thia-3,5,8-triazaacenaphthylene-2-carboxamide]
7.09 | C=CC(=O)N[C@H]1CCC[C@H]1NC(=O)c1sc2nccc3c2c1NC(=O)N3c1ccc(O[C@@H]2CCOC2)cc1C [Example 386, N-((1R,2S)-2-Acrylamidocyclopentyl)-5-(2-methyl-4-(((R)-tetrahydrofuran-3-yl)oxy)phenyl)-4-oxo-4,5-dihydro-3H-1-thia-3,5,8-triazaacenaphthylene-2-carboxamide]
7.16 | C=CC(=O)N[C@H]1CCC[C@H]1NC(=O)c1sc2nccc3c2c1NC(=O)N3c1ccc(Oc2cccnn2)cc1 [Example 387, N-((1R,2S)-2-Acrylamidocyclopentyl)-4-oxo-5-(4-(pyridazin-3-yloxy)phenyl)-4,5-dihydro-3H-1-thia-3,5,8-triazaacenaphthylene-2-carboxamide]
6.74 | O=C(N[C@@H]1CCC[C@H]1O)c1sc2nccc3c2c1NC(=O)N3c1ccc(Oc2ccccc2)cc1 [Example 393, N-((1R,2R)-2-Hydroxycyclopentyl)-4-oxo-5-(4-phenoxyphenyl)-4,5-dihydro-3H-1-thia-3,5,8-triazaacenaphthylene-2-carboxamide]
6.66 | CC(=O)N[C@H]1CCC[C@H]1NC(=O)c1sc2nccc3c2c1NC(=O)N3c1ccc(Oc2ccccc2)cc1 [Example 396, N-((1R,2S)-2-Acetamidocyclopentyl)-4-oxo-5-(4-phenoxyphenyl)-4,5-dihydro-3H-1-thia-3,5,8-triazaacenaphthylene-2-carboxamide]
6.56 | CCC(=O)N[C@H]1CCC[C@H]1NC(=O)c1sc2nccc3c2c1NC(=O)N3c1ccc(Oc2ccccc2)cc1 [Example 398, 4-Oxo-5-(4-phenoxyphenyl)-N-((1R,2S)-2-propionamidocyclopentyl)-4,5-dihydro-3H-1-thia-3,5,8-triazaacenaphthylene-2-carboxamide]
6.39 | C=CC(=O)N[C@H]1CCCC[C@H]1NC(=O)c1sc2nccc3c2c1NC(=O)N3c1ccc(Oc2ccccn2)cc1C [Example 401, N-((1R,2S)-2-Acrylamidocyclohexyl)-5-(2-methyl-4-(pyridin-2-yloxy)phenyl)-4-oxo-4,5-dihydro-3H-1-thia-3,5,8-triazaacenaphthylene-2-carboxamide]
6.13 | C=CC(=O)N[C@H]1CCCC[C@H]1NC(=O)c1sc2nccc3c2c1NC(=O)N3c1ccc(Oc2cccnn2)cc1C [Example 406, N-((1R,2S)-2-Acrylamidocyclohexyl)-5-(2-methyl-4-(pyridazin-3-yloxy)phenyl)-4-oxo-4,5-dihydro-3H-1-thia-3,5,8-triazaacenaphthylene-2-carboxamide]
5.89 | CN[C@H]1CCN(C(=O)c2sc3nccc4c3c2NC(=O)N4c2ccc(Oc3ccccc3)cc2C)C1 [Example 417, (S)-5-(2-Methyl-4-phenoxyphenyl)-2-(3-(methylamino)pyrrolidine-1-carbonyl)-3H-1-thia-3,5,8-triazaacenaphthylen-4(5H)-one]
5.80 | CCC(=O)N[C@H]1CCN(C(=O)c2sc3nccc4c3c2NC(=O)N4c2ccc(Oc3ccccc3)cc2C)C1 [Example 418, (S)—N-(1-(5-(2-Methyl-4-phenoxyphenyl)-4-oxo-4,5-dihydro-3H-1-thia-3,5,8-triazaacenaphthylene-2-carbonyl)pyrrolidin-3-yl)propionamide]
5.79 | CC(=O)N[C@H]1CCN(C(=O)c2sc3nccc4c3c2NC(=O)N4c2ccc(Oc3ccccc3)cc2C)C1 [Example 419, (S)—N-(1-(5-(2-Methyl-4-phenoxyphenyl)-4-oxo-4,5-dihydro-3H-1-thia-3,5,8-triazaacenaphthylene-2-carbonyl)pyrrolidin-3-yl)acetamide]
5.73 | Cc1cc(Oc2ccccc2)ccc1N1C(=O)Nc2c(C(=O)N3CC[C@H](N)C3)sc3nccc1c23 [Example 420, (S)-2-(3-Aminopyrrolidine-1-carbonyl)-5-(2-methyl-4-phenoxyphenyl)-3H-1-thia-3,5,8-triazaacenaphthylen-4(5H)-one]
5.66 | Cc1cc(Oc2ccccc2)ccc1N1C(=O)Nc2c(C(=O)N3CC[C@H](N(C)C)C3)sc3nccc1c23 [Example 421, (S)-2-(3-(Dimethylamino)pyrrolidine-1-carbonyl)-5-(2-methyl-4-phenoxyphenyl)-3H-1-thia-3,5,8-triazaacenaphthylen-4(5H)-one]
7.45 | CC(=O)N[C@H]1CC[C@H](NC(=O)c2sc3nccc4c3c2NC(=O)N4c2cnc(Oc3ccccc3)cc2C)CC1 [Example 432, N-((1r,4r)-4-Acetamidocyclohexyl)-5-(*S)-(4-methyl-6-phenoxypyridin-3-yl)-4-oxo-4,5-dihydro-3H-1-thia-3,5,8-triazaacenaphthylene-2-carboxamide]
7.01 | C=CC(=O)N[C@H]1CCN(C(=O)c2sc3nccc4c3c2NC(=O)N4c2ccc(Oc3ccccc3)cc2C)C1 [Example 433, (S)—N-(1-(5-(2-Methyl-4-phenoxyphenyl)-4-oxo-4,5-dihydro-3H-1-thia-3,5,8-triazaacenaphthylene-2-carbonyl)pyrrolidin-3-yl)acrylamide]
6.29 | C=CC(=O)N[C@@H]1CCN(C(=O)c2sc3nccc4c3c2NC(=O)N4c2ccc(Oc3ccccc3)cc2C)C1 [Example 434, (R)—N-(1-(5-(2-Methyl-4-phenoxyphenyl)-4-oxo-4,5-dihydro-3H-1-thia-3,5,8-triazaacenaphthylene-2-carbonyl)pyrrolidin-3-yl)acrylamide]
6.15 | Cc1cc(Oc2ccccc2)ccc1N1C(=O)Nc2c(C(=O)N3CC[C@H](NC(=O)/C(C#N)=C/C4CC4)C3)sc3nccc1c23 [Example 435, (S,E)-2-Cyano-3-cyclopropyl-N-(1-(5-(2-methyl-4-phenoxyphenyl)-4-oxo-4,5-dihydro-3H-1-thia-3,5,8-triazaacenaphthylene-2-carbonyl)pyrrolidin-3-yl)acrylamide]
6.09 | Cc1cc(Oc2ccccc2)ccc1N1C(=O)Nc2c(C(=O)N3CC[C@@H](NC(=O)/C(C#N)=C/C4CC4)C3)sc3nccc1c23 [Example 436, (R,E)-2-Cyano-3-cyclopropyl-N-(1-(5-(2-methyl-4-phenoxyphenyl)-4-oxo-4,5-dihydro-3H-1-thia-3,5,8-triazaacenaphthylene-2-carbonyl)pyrrolidin-3-yl)acrylamide]

Same assay, conditions: read-out: BTK_I_binding pIC50 (converted)

IC50 | SMILES
> 1 µM | C=CC(=O)N[C@H]1CCCC[C@H]1NC(=O)c1sc2nccc3c2c1NC(=O)N3c1ccc(Oc2cccnn2)cc1 [Example 408, N-((1R,2S)-2-Acrylamidocyclohexyl)-4-oxo-5-(4-(pyridazin-3-yloxy)phenyl)-4,5-dihydro-3H-1-thia-3,5,8-triazaacenaphthylene-2-carboxamide]

Reference: patent US10934310B2, “Inhibitors of Bruton's tyrosine kinase and method of their use” (JANSSEN PHARMACEUTICA NV, priority 2015, dated 2021)
